# Assay results published in the OligoGym collection.
# Where “and” joins values, the source holds several entries; their conditions need not be identical. Equal values may be shown once. HELM strings list units from the 5' end as sugar, base in round brackets, then linkage (d deoxyribose, r ribose, m 2'-O-methyl, p phosphodiester). Methylation of C is not given here. [moe] = 2'-O-(2-methoxyethyl) (MOE); [cEt] = constrained ethyl (cEt); [sp] = phosphorothioate linkage
# Molecular target: HBV
# Conditions: ASO
substance,measurement,setting,value
RNA1{[moe](T)[sp].[moe](G)[sp].[moe](A)[sp].[cEt](G)[sp].[cEt](G)[sp].d(C)[sp].d(A)[sp].d(T)[sp].d(A)[sp].d(G)[sp].d(C)[sp].d(A)[sp].[cEt](G)[sp].[cEt](C)[sp].[moe](A)[sp].[moe](G)[sp].[moe](G)}$$$$V2.0,target mRNA inhibition,"HepG2, 0.009375 µM",23%
same,target mRNA inhibition,"HepG2, 0.01875 µM",4%
same,target mRNA inhibition,"HepG2, 0.0375 µM",29%
same,target mRNA inhibition,"HepG2, 0.075 µM",31%
same,target mRNA inhibition,"HepG2, 0.15 µM",36%
same,target mRNA inhibition,"HepG2, 0.3 µM",56%
RNA1{[moe](T)[sp].[moe](G)[sp].[moe](A)[sp].[cEt](G)[sp].d(G)[sp].d(C)[sp].d(A)[sp].d(T)[sp].d(A)[sp].d(G)[sp].d(C)[sp].d(A)[sp].d(G)[sp].[cEt](C)[sp].[moe](A)[sp].[moe](G)[sp].[moe](G)}$$$$V2.0,target mRNA inhibition,"HepG2, 0.009375 µM",6%
same,target mRNA inhibition,"HepG2, 0.01875 µM",31%
same,target mRNA inhibition,"HepG2, 0.0375 µM",42%
same,target mRNA inhibition,"HepG2, 0.075 µM",58%
same,target mRNA inhibition,"HepG2, 0.15 µM",66%
same,target mRNA inhibition,"HepG2, 0.3 µM",82%
RNA1{[moe](T)[sp].[moe](G)[sp].[moe](A)[sp].[moe](A)[sp].[moe](G)[sp].[moe](C)[sp].d(G)[sp].d(A)[sp].d(A)[sp].d(G)[sp].d(T)[sp].d(G)[sp].d(C)[sp].d(A)[sp].d(C)[sp].[moe](A)[sp].[moe](C)}$$$$V2.0,target mRNA inhibition,"HepG2, 0.07 µM",84% and 64%
RNA1{[moe](T)[sp].[moe](G)[sp].[moe](A)[sp].d(A)[sp].d(G)[sp].d(C)[sp].d(G)[sp].d(A)[sp].d(A)[sp].d(G)[sp].d(T)[sp].d(G)[sp].d(C)[sp].[cEt](A)[sp].[cEt](C)[sp].[cEt](A)}$$$$V2.0,target mRNA inhibition,"HepG2, 0.07 µM",67% and 70%
RNA1{[moe](T)[sp].[moe](G)[sp].[moe](A)[sp].d(G)[sp].d(G)[sp].d(C)[sp].d(A)[sp].d(T)[sp].d(A)[sp].d(G)[sp].d(C)[sp].d(A)[sp].[moe](G)[sp].[moe](C)[sp].[moe](A)[sp].[moe](G)[sp].[moe](G)}$$$$V2.0,target mRNA inhibition,"HepG2, 0.07 µM",70% and 56%
RNA1{[moe](T)[sp].[moe](G)[sp].[moe](C)[sp].d(A)[sp].d(G)[sp].d(A)[sp].d(G)[sp].d(G)[sp].d(T)[sp].d(G)[sp].d(A)[sp].d(A)[sp].[moe](G)[sp].[moe](C)[sp].[moe](G)[sp].[moe](A)}$$$$V2.0,target mRNA inhibition,"HepG2, 0.07 µM",51% and 56%
RNA1{[moe](T)[sp].[moe](G)[sp].[moe](G)[sp].[moe](A)[sp].[moe](G)[sp].d(C)[sp].d(C)[sp].d(A)[sp].d(C)[sp].d(C)[sp].d(A)[sp].d(G)[sp].d(C)[sp].d(A)[sp].[moe](G)[sp].[moe](G)}$$$$V2.0,target mRNA inhibition,"HepG2, 0.07 µM",33% and 32%
RNA1{[moe](T)[sp].[moe](G)[sp].d(A)[sp].d(A)[sp].d(G)[sp].d(C)[sp].d(G)[sp].d(A)[sp].d(A)[sp].d(G)[sp].d(T)[sp].[moe](G)[sp].[moe](C)[sp].[moe](A)[sp].[moe](C)[sp].[moe](A)[sp].[moe](C)}$$$$V2.0,target mRNA inhibition,"HepG2, 0.07 µM",81% and 79%
RNA1{[moe](T)[sp].[moe](G)[sp].d(A)[sp].d(G)[sp].d(G)[sp].d(C)[sp].d(A)[sp].d(T)[sp].d(A)[sp].d(G)[sp].d(C)[sp].[moe](A)[sp].[moe](G)[sp].[moe](C)[sp].[moe](A)[sp].[moe](G)}$$$$V2.0,target mRNA inhibition,"HepG2, 0.07 µM",59% and 52%
RNA1{[moe](T)[sp].[moe](T)[sp].[moe](A)[sp].[moe](T)[sp].d(G)[sp].d(C)[sp].d(C)[sp].d(T)[sp].d(A)[sp].d(C)[sp].d(A)[sp].d(G)[sp].d(C)[sp].[moe](C)[sp].[moe](T)[sp].[moe](C)[sp].[moe](C)}$$$$V2.0,target mRNA inhibition,"HepG2, 0.07 µM",52% and 34%
RNA1{[moe](T)[sp].[moe](T)[sp].[moe](A)[sp].[moe](T)[sp].d(G)[sp].d(C)[sp].d(C)[sp].d(T)[sp].d(A)[sp].d(C)[sp].d(A)[sp].d(G)[sp].d(C)[sp].[moe](C)[sp].[moe](T)[sp].[moe](C)}$$$$V2.0,target mRNA inhibition,"HepG2, 0.07 µM",42% and 46%
RNA1{[moe](T)[sp].[moe](T)[sp].[moe](A)[sp].d(T)[sp].d(G)[sp].d(C)[sp].d(C)[sp].d(T)[sp].d(A)[sp].d(C)[sp].d(A)[sp].d(G)[sp].[moe](C)[sp].[moe](C)[sp].[moe](T)[sp].[moe](C)}$$$$V2.0,target mRNA inhibition,"HepG2, 0.07 µM",51% and 41%
RNA1{[moe](T)[sp].[moe](T)[sp].[moe](C)[sp].[moe](C)[sp].[moe](G)[sp].[moe](C)[sp].d(A)[sp].d(G)[sp].d(T)[sp].d(A)[sp].d(T)[sp].d(G)[sp].d(G)[sp].d(A)[sp].d(T)[sp].[moe](C)[sp].[moe](G)}$$$$V2.0,target mRNA inhibition,"HepG2, 0.07 µM",45% and 53%
RNA1{[moe](T)[sp].[moe](T)[sp].[moe](C)[sp].d(C)[sp].d(G)[sp].d(C)[sp].d(A)[sp].d(G)[sp].d(T)[sp].d(A)[sp].d(T)[sp].d(G)[sp].[moe](G)[sp].[moe](A)[sp].[moe](T)[sp].[moe](C)[sp].[moe](G)}$$$$V2.0,target mRNA inhibition,"HepG2, 0.07 µM",73% and 60%
RNA1{[moe](T)[sp].[moe](T)[sp].d(C)[sp].d(C)[sp].d(G)[sp].d(C)[sp].d(A)[sp].d(G)[sp].d(T)[sp].d(A)[sp].d(T)[sp].[moe](G)[sp].[moe](G)[sp].[moe](A)[sp].[moe](T)[sp].[moe](C)}$$$$V2.0,target mRNA inhibition,"HepG2, 0.07 µM",62% and 50%
RNA1{[moe](T)[sp].[moe](T)[sp].d(T)[sp].d(A)[sp].d(T)[sp].d(G)[sp].d(C)[sp].d(C)[sp].d(T)[sp].d(A)[sp].d(C)[sp].[moe](A)[sp].[moe](G)[sp].[moe](C)[sp].[moe](C)[sp].[moe](T)[sp].[moe](C)}$$$$V2.0,target mRNA inhibition,"HepG2, 0.07 µM",64% and 54%
RNA1{d(C)[sp].d(C)[sp].d(A)[sp].d(A)[sp].d(A)[sp].d(G)[sp].d(C)[sp].d(C)[sp].d(A)[sp].d(C)[sp].d(C)[sp].d(C)[sp].d(A)[sp].d(A)[sp].d(G)[sp].d(G)}$$$$V2.0,target mRNA inhibition,"HepG2, 0.01875 µM",4% and 0%
same,target mRNA inhibition,"HepG2, 0.0375 µM",0%
same,target mRNA inhibition,"HepG2, 0.075 µM",0%
same,target mRNA inhibition,"HepG2, 0.15 µM",3% and 0%
same,target mRNA inhibition,"HepG2, 0.3 µM",13%
